Measured values as given in patent US20260098008A1, “COVALENT, CHEMOGENETIC ACTIVATORS FOR K2P POTASSIUM CHANNELS AND USES THEREOF” (THE REGENTS OF THE UNIVERSITY OF CALIFORNIA, priority 2022, published 2026).
Substitutions are numbered along the chain they refer to.

Assays:
[1] = target: T1, A286F K2P2.1 (TREK-1) (Mus musculus, UniProt P97438, A301F); test: TEVC in Xenopus oocytes, attenuated channels; type: cell-based; conditions: 20 μM; sequential addition of ML335, CAT335, BL-1249; 0 mV
T1 construct: expressed in transfected cells; host or cells: Xenopus laevis oocytes injected with mRNA
T1 sequence (P97438 1-411 isoform P97438-2 A286F): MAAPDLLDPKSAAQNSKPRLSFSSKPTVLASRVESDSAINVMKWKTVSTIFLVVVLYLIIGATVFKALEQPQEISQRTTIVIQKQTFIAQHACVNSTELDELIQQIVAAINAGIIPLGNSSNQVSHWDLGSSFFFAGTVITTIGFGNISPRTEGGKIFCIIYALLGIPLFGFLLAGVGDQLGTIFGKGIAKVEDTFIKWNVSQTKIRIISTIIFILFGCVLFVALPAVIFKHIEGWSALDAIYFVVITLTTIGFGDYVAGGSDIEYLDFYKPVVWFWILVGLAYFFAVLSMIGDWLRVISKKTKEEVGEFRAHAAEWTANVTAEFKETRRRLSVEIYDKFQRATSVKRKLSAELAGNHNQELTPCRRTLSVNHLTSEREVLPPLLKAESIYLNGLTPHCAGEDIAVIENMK
Source text: (§1) Mouse K2P2.1 (TREK-1) (Genbank accession number: NP_034737.2), mouse K2P10.1 (TREK-2) (NM_001316665.1), mouse K2P4.1 (TRAAK) (NM_008431.3), human K2P4.1 (TRAAK) (NM_033310.2) and mouse K2P18.1(TRESK) (NM_207261.3) were used for this study. Point mutations were introduced by site-directed mutagenesis using custom primers and confirmed by sequencing before use. For studies using Xenopus oocytes, K2P channels were subcloned into a previously reported pGEMHE/pMO vector (46). For expression in HEK293 cells, mouse K2P2.1 (TREK-1) and mutants were expressed from a previously described pIRES2-EGFP vector in HEK293 cells (46,47). K2P2.1 (TREK-1) tandems were constructed by connecting the open reading frames for the individual subunits with a linker encoding the […] (SEQ ID NO: 19) sequence. Tandems used for HEK293 cells included an N-terminal HA tag ([…] (SEQ ID NO: 20)) on the first subunit.
(§2) Xenopus laevis oocytes were harvested according to UCSF IACUC Protocol AN129690 and digested using collagenase (Worthington Biochemical Corporation, #LS004183, 0.8-1.0 mg/mL) in Ca^21-free ND96 (96 mM NaCl, 2 mM KCl, 3.8 mM MgCl2, 5 mM HEPES pH 7.4) immediately post-harvest, as previously reported (31,33). Oocytes were maintained at 18° C. in ND96 (96 mM NaCl, 2 mM KCl, 1.8 mM CaCl2, 2 mM MgCl2, 5 mM HEPES pH 7.4) supplemented with antibiotics (100 units mL^−1 penicillin, 100 μg mL^−1 streptomycin, 50 μg mL^−1 gentimycin) and used for experiments within one week of harvest.
(§3) Defolliculated stage V-VI oocytes were microinjected with 0.5-36 ng mRNA and currents were recorded within 16-48 h hours of injection.
(§4) For recordings, oocytes were impaled with borosilicate recording microelectrodes (0.4-2.0 MΩ resistance) backfilled with 3 M KCl and were subjected to constant perfusion of ND96 at a rate of 3 ml min^−1. Recording solutions containing K2P activators were prepared immediately prior to use from DMSO stocks (20-100 mM), with final DMSO concentrations of 0.1%. Currents were evoked from a −80 mV holding potential followed by a 300 ms ramp from −150 mV to +50 mV. Data were recorded using a GeneClamp 500B amplifier (MDS Analytical Technologies) controlled by pCLAMP8 software (Molecular Devices), and digitized at 1 kHz using Digidata 1332 Å digitizer (MDS Analytical Technologies). For each recording, control solution (ND96) was perfused over a single oocyte until current was stable before switching to solutions containing the test compounds at various concentrations. Representative traces and dose response plots were generated in GraphPad Prism 9.

[2] = target: T2, G171F K2P2.1 (TREK-1) (Mus musculus, UniProt P97438, G186F); test: TEVC in Xenopus oocytes, attenuated channels; type: cell-based; conditions: 20 μM; sequential addition of ML335, CAT335, BL-1249; 0 mV
T2 construct: expressed in transfected cells; host or cells: Xenopus laevis oocytes injected with mRNA
T2 sequence (P97438 1-411 isoform P97438-2 G171F): T1 sequence (P97438 1-411 isoform P97438-2 A286F) with G171F, F286A
Source text: as §1, §2, §3, §4

Row | Fold-activation (I activator/I control) [1] | Fold-activation (I activator/I control) [2] | SMILES
1 | 19.4±1.3 fold | 3.8±0.5 fold | c1ccc(-c2nn[nH]n2)c(Nc2cccc3c2CCCC3)c1 [BL-1249, reference compound]
2 | insensitive | insensitive | O=C(NCc1ccc(Cl)cc1Cl)c1ccc(N2C(=O)C=CC2=O)cc1 [CAT335]
3 | 1-1.8 fold | 1-1.8 fold | CS(=O)(=O)Nc1ccc(C(=O)NCc2ccc(Cl)cc2Cl)cc1 [ML335, reference compound]
